Measured values taken from patent US11130752B2, “Aminopyrimidine compound” (Cardurion Pharmaceuticals, LLC, priority 2018, dated 2021).
Where a name gives a salt, the structure may show the parent alone.

What follows are compounds tested against T1, human CaMKIIδ (Homo sapiens, UniProt Q13557) (assay: In vitro CaMKII inhibitory activity (binding assay, TR-FRET)). Details: Table 1, GST-tagged human CaMKIIδ, activity ranks.
T1 construct: Full-length, glutathione-S-transferase(GST)-tagged, human CaMKIIδ was purchased from Carna Biosciences; purchased Carna Biosciences (CaMKIIδ); Wako Pure Chemical Industries (calmodulin) 02-111
Procedure: Evaluation of In Vitro CaMKII Inhibitory Activity (Binding Assay)
In vitro CaMKIIδ inhibitory activity was evaluated by a binding assay.
Full-length, glutathione-S-transferase(GST)-tagged, human CaMKIIδ was purchased from Carna Biosciences (product #02-111, Kobe, Japan). Full-length bovine calmodulin was purchased from Wako Pure Chemical Industries (Osaka, Japan). Terbium-labeled anti-GST antibody (Tb-anti-GST Ab) was purchased from Life Technologies (Carlsbad, Calif., USA). Boron-dipyrromethene (BODIPY)-labeled probe ligand was synthesized as described below.
Time-Resolved Fluorescence Resonance Energy Transfer (TR-FRET) Assay
All assays were conducted using 384-well, white, flat-bottomed plates (product #784075, Greiner Bio-One, Frickenhausen, Germany) in kinase assay buffer, which consists of 50 mM HEPES pH 7.6, 10 mM MgCl2, 1 mM EGTA, 0.01% Brig-35, 0.1 mM DTT). The fluorescent probe ligand was added at a final concentration of 300 nM to solutions containing 0.21 nM Tb-anti-GST Ab, 1 mM CaCl2, 10 μg/mL calmodulin, and 0.5 nM GST-tagged CaMKIIδ. After shaded incubation of the protein-probe mixture on ice for 30 min, the premix was dispensed in the assay plate including test inhibitors with 4 fold dilution series of eight concentrations. After 1 hr incubation at room temperature, TR-FRET signals were measured in duplicate using an EnVision microplate reader (Perkin Elmer, Waltham, Mass., USA). The solution in each well was excited with a laser (λ=340 nm) reflected by a dichroic mirror (D400/D505 (Perkin Elmer) through an excitation filter (UV (TRF) 340, (Perkin Elmer)), and fluorescence from Tb and BODIPY were detected through two emission filters (CFP 495 (Perkin Elmer) for Tb, Emission 520 (Perkin Elmer) for BODIPY).
The percentage of inhibition of test compounds was calculated according to equation (1) Inhibition(%)=100×(μH−T)/(μH−μL) (1)
Where T is the value of the wells containing test compounds and μH and μL are the mean values of the 0% and 100% inhibition control wells, respectively. The values of the 0 and 100% controls were the signals obtained in the absence and presence of 3 μM its parent compound, respectively. The half maximal inhibitory concentration (IC50) of test compounds was calculated by fitting the data with the logistic equation using XLfit (IDBS, Guildford, UK). The IC50 was classified according to the following activity ranks.
Compound `C[C@@H](Cn1cnnn1)Oc1cc(-c2cnc(Nc3cn([C@H]4CC[C@H](N5[C@@H]6CC[C@H]5COC6)CC4)nc3OCCO)nc2)ccc1C#N` [Example 244, 2-(((S)-1-(1H-tetrazol-1-yl)propan-2-yl)oxy)-4-(2-((1-((1r,4r)-4-((1R,5S)-3-oxa-8-azabicyclo[3.2.1]octan-8-yl)cyclohexyl)-3-(2-hydroxyethoxy)-1H-pyrazol-4-yl)amino)pyrimidin-5-yl)benzonitrile] has an IC50 of less than 0.01 µM.
For `COCCOCCOc1nn([C@H]2CC[C@H](N3C[C@@H](C)O[C@@H](C)C3)CC2)cc1Nc1ncc(-c2ccc(Cl)c(O[C@@H](C)Cn3cnnn3)c2)cn1` [Example 240, 5-(3-(((S)-1-(1H-tetrazol-1-yl)propan-2-yl)oxy)-4-chlorophenyl)-N-(1-((1r,4r)-4-((2S,6R)-2,6-dimethylmorpholino)cyclohexyl)-3-(2-(2-methoxyethoxy)ethoxy)-1H-pyrazol-4-yl)pyrimidin-2-amine hydrochloride], the IC50 was less than 0.01 µM.
Work on `C[C@@H](Cn1cnnn1)Oc1cc(-c2cnc(Nc3cn([C@H]4CC[C@H](N5CCOCC5)CC4)nc3OCCCOCC(F)F)nc2)ccc1Cl` [Example 47, 5-(3-(((S)-1-(1H-tetrazol-1-yl)propan-2-yl)oxy)-4-chlorophenyl)-N-(3-(3-(2,2-difluoroethoxy)propoxy)-1-((1r,4r)-4-morpholinocyclohexyl)-1H-pyrazol-4-yl)pyrimidin-2-amine] yielded an IC50 of less than 0.01 µM.
`COCCOc1nn([C@H]2CC[C@H](N3CCOCC3)CC2)cc1Nc1ncc(-c2ccc(Cl)c(O[C@@H](C)Cn3cnnn3)c2)cn1` [Example 2, 5-(3-(((S)-1-(1H-tetrazol-1-yl)propan-2-yl)oxy)-4-chlorophenyl)-N-(3-(2-methoxyethoxy)-1-((1r,4r)-4-morpholinocyclohexyl)-1H-pyrazol-4-yl)pyrimidin-2-amine] was tested, and the IC50 was less than 0.01 µM.
`COCCCOc1nn([C@H]2CC[C@H](N3CCOCC3)CC2)cc1Nc1ncc(-c2ccc(C#N)c(O[C@@H](C)Cn3cncn3)c2)cn1` [Example 28, 2-(((S)-1-(1H-1,2,4-triazol-1-yl)propan-2-yl)oxy)-4-(2-((3-(3-methoxypropoxy)-1-((1r,4r)-4-morpholinocyclohexyl)-1H-pyrazol-4-yl)amino)pyrimidin-5-yl)benzonitrile] gave an IC50 of less than 0.01 µM.
Work on `CC(C)OCCOc1nn([C@H]2CC[C@H](N3CCOCC3)CC2)cc1Nc1ncc(-c2ccc(C#N)c(O[C@@H](C)Cn3cnnn3)c2)cn1` [Example 14, 2-(((S)-1-(1H-tetrazol-1-yl)propan-2-yl)oxy)-4-(2-((3-(2-isopropoxyethoxy)-1-((1r,4r)-4-morpholinocyclohexyl)-1H-pyrazol-4-yl)amino)pyrimidin-5-yl)benzonitrile] yielded an IC50 of less than 0.01 µM.
`CCOCCOc1nn([C@H]2CC[C@H](N3CCOCC3)CC2)cc1Nc1ncc(-c2ccc(C#N)c(O[C@@H](C)Cn3cnnn3)c2)cn1` [Example 8, 2-(((S)-1-(1H-tetrazol-1-yl)propan-2-yl)oxy)-4-(2-((3-(2-ethoxyethoxy)-1-((1r,4r)-4-morpholinocyclohexyl)-1H-pyrazol-4-yl)amino)pyrimidin-5-yl)benzonitrile] gave an IC50 of less than 0.01 µM.
`COCCOc1nn([C@H]2CC[C@H](N3CCOCC3)CC2)cc1Nc1ncc(-c2ccc(C#N)c(O[C@@H](C)Cn3cnnn3)c2)cn1` [Example 1, 2-(((S)-1-(1H-tetrazol-1-yl)propan-2-yl)oxy)-4-(2-((3-(2-methoxyethoxy)-1-((1r,4r)-4-morpholinocyclohexyl)-1H-pyrazol-4-yl)amino)pyrimidin-5-yl)benzonitrile] gave an IC50 of less than 0.01 µM.
For `CCOCCCOc1nn([C@H]2CC[C@H](N3[C@@H]4CC[C@H]3COC4)CC2)cc1Nc1ncc(-c2ccc(Cl)c(O[C@@H](C)Cn3cnnn3)c2)cn1` [Example 242, 5-(3-(((S)-1-(1H-tetrazol-1-yl)propan-2-yl)oxy)-4-chlorophenyl)-N-(1-((1r,4r)-4-((1R,5S)-3-oxa-8-azabicyclo[3.2.1]octan-8-yl)cyclohexyl)-3-(3-ethoxypropoxy)-1H-pyrazol-4-yl)pyrimidin-2-amine], the IC50 was less than 0.01 µM.

Same assay, conditions: Table 4, GST-tagged human CaMKIIδ, activity ranks
Work on `C[C@@H](Cn1cnnn1)Oc1cc(-c2cnc(Nc3cn([C@H]4CC[C@H](N5CCOCC5)CC4)nc3OCCCC#N)nc2)ccc1Cl` [Example 493, 4-((4-((5-(3-(((S)-1-(1H-tetrazol-1-yl)propan-2-yl)oxy)-4-chlorophenyl)pyrimidin-2-yl)amino)-1-((1r,4r)-4-morpholinocyclohexyl)-1H-pyrazol-3-yl)oxy)butanenitrile] yielded an IC50 of less than 0.01 µM.
For `C[C@@H](Cn1cnnn1)Oc1cc(-c2cnc(Nc3cn([C@H]4CC[C@H](N5CCOCC5)CC4)nc3OCCc3cccnc3)nc2)ccc1Cl` [Example 510, 5-(3-(((S)-1-(1H-tetrazol-1-yl)propan-2-yl)oxy)-4-chlorophenyl)-N-(1-((1r,4r)-4-morpholinocyclohexyl)-3-(2-(pyridin-3-yl)ethoxy)-1H-pyrazol-4-yl)pyrimidin-2-amine], the IC50 was less than 0.01 µM.
For `C[C@@H](Cn1cnnn1)Oc1cc(-c2cnc(Nc3cn([C@H]4CC[C@H](N5CCOCC5)CC4)nc3OCC3CCOC3)nc2)ccc1Cl` (stereo partly drawn) [Example 498, 5-(3-(((S)-1-(1H-tetrazol-1-yl)propan-2-yl)oxy)-4-chlorophenyl)-N-(1-((1r,4r)-4-morpholinocyclohexyl)-3-((tetrahydrofuran-3-yl)methoxy)-1H-pyrazol-4-yl)pyrimidin-2-amine], the IC50 was less than 0.01 µM.
`C[C@@H]1CN([C@H]2CC[C@H](n3cc(Nc4ncc(-c5ccc(Cl)c(O[C@@H](C)Cn6cnnn6)c5)cn4)c(OCc4nncn4C)n3)CC2)C[C@H](C)O1` [Example 473, 5-(3-(((S)-1-(1H-tetrazol-1-yl)propan-2-yl)oxy)-4-chlorophenyl)-N-(1-((1r,4r)-4-((2S,6R)-2,6-dimethylmorpholino)cyclohexyl)-3-((4-methyl-4H-1,2,4-triazol-3-yl)methoxy)-1H-pyrazol-4-yl)pyrimidin-2-amine] was tested, and the IC50 was less than 0.01 µM.
Work on `C[C@@H](Cn1cnnn1)Oc1cc(-c2cnc(Nc3cn([C@H]4CC[C@H](N5CCOCC5)CC4)nc3OCCn3ccnc3)nc2)ccc1Cl` [Example 507, N-(3-(2-(1H-imidazol-1-yl)ethoxy)-1-((1r,4r)-4-morpholinocyclohexyl)-1H-pyrazol-4-yl)-5-(3-(((S)-1-(1H-tetrazol-1-yl)propan-2-yl)oxy)-4-chlorophenyl)pyrimidin-2-amine] yielded an IC50 of less than 0.01 µM.
Work on `COCCOCCOCCOc1nn([C@H]2CC[C@H](N3CCOCC3)CC2)cc1Nc1ncc(-c2ccc(Cl)c(O[C@@H](C)Cn3cnnn3)c2)cn1` [Example 511, 5-(3-(((S)-1-(1H-tetrazol-1-yl)propan-2-yl)oxy)-4-chlorophenyl)-N-(3-(2-(2-(2-methoxyethoxy)ethoxy)ethoxy)-1-((1r,4r)-4-morpholinocyclohexyl)-1H-pyrazol-4-yl)pyrimidin-2-amine] yielded an IC50 of 0.01 to 0.1 µM.
Work on `C[C@@H](Cn1cnnn1)Oc1cc(-c2cnc(Nc3cn([C@H]4CC[C@H](N5CCOCC5)CC4)nc3OCCCC#N)nc2)ccc1C#N` [Example 494, 2-(((S)-1-(1H-tetrazol-1-yl)propan-2-yl)oxy)-4-(2-((3-(3-cyanopropoxy)-1-((1r,4r)-4-morpholinocyclohexyl)-1H-pyrazol-4-yl)amino)pyrimidin-5-yl)benzonitrile] yielded an IC50 of less than 0.01 µM.
With `C[C@@H](Cn1cnnn1)Oc1cc(-c2cnc(Nc3cn([C@H]4CC[C@H](N5CCOCC5)CC4)nc3OCc3cncs3)nc2)ccc1Cl` [Example 501, 5-(3-(((S)-1-(1H-tetrazol-1-yl)propan-2-yl)oxy)-4-chlorophenyl)-N-(1-((1r,4r)-4-morpholinocyclohexyl)-3-(thiazol-5-ylmethoxy)-1H-pyrazol-4-yl)pyrimidin-2-amine] the IC50 was less than 0.01 µM.
Work on `C[C@@H](Cn1cnnn1)Oc1cc(-c2cnc(Nc3cn([C@H]4CC[C@H](N5CCOCC5)CC4)nc3OCc3ncco3)nc2)ccc1Cl` [Example 503, 5-(3-(((S)-1-(1H-tetrazol-1-yl)propan-2-yl)oxy)-4-chlorophenyl)-N-(1-((1r,4r)-4-morpholinocyclohexyl)-3-(oxazol-2-ylmethoxy)-1H-pyrazol-4-yl)pyrimidin-2-amine] yielded an IC50 of less than 0.01 µM.
`C[C@@H](Cn1cnnn1)Oc1cc(-c2cnc(Nc3cn([C@H]4CC[C@H](N5CCOCC5)CC4)nc3OCc3ccnn3C)nc2)ccc1Cl` [Example 502, 5-(3-(((S)-1-(1H-tetrazol-1-yl)propan-2-yl)oxy)-4-chlorophenyl)-N-(3-((1-methyl-1H-pyrazol-5-yl)methoxy)-1-((1r,4r)-4-morpholinocyclohexyl)-1H-pyrazol-4-yl)pyrimidin-2-amine] showed an IC50 of less than 0.01 µM.
